The assay addresses T1, human recombinant HDAC6 (Homo sapiens, UniProt Q9UBN7).
T1 construct: purchased Calbiochem 382180
T1 sequence (Q9UBN7 1-1215): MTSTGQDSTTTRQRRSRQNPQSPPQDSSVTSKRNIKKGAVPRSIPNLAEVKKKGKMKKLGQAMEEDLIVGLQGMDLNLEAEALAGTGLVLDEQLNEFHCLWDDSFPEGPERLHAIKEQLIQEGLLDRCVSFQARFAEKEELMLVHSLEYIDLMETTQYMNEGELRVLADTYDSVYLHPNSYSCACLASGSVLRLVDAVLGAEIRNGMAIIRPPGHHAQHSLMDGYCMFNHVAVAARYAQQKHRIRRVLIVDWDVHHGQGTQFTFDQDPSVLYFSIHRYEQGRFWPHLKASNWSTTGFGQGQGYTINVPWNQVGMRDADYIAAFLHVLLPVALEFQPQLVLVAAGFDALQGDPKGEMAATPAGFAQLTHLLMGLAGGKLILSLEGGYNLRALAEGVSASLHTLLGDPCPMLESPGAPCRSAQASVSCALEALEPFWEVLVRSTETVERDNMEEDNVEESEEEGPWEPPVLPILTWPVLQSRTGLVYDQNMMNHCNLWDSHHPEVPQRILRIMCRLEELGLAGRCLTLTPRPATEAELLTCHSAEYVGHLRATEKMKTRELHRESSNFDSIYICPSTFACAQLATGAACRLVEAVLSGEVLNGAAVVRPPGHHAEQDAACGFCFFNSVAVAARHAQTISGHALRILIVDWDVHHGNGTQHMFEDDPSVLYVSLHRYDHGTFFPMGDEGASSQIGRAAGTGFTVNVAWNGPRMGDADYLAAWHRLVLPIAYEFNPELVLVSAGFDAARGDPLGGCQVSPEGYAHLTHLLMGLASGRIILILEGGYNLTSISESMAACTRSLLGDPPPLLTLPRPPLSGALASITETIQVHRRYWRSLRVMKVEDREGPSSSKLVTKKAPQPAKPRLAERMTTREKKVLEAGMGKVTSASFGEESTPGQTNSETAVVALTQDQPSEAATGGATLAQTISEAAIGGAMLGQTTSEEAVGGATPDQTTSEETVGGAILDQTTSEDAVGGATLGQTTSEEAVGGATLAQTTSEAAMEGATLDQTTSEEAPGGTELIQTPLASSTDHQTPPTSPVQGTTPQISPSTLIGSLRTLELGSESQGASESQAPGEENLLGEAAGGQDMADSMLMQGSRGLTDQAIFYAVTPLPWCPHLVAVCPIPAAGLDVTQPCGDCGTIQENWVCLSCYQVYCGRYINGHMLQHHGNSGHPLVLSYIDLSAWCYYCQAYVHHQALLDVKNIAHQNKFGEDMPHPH
As to the kind of experiment: HDAC enzyme activity inhibition assay (HDAC6, fluorimetric kit). The note with it: for HDAC6 selectivity (fold): HDAC6 versus HDAC1; for IC50: same protocol as the HDAC1 test. Format: biochemical. On the procedure: In order to examine the HDAC6 selectivity of the compounds of formula I of the present invention by HDAC1 and HDAC6 enzymatic activity inhibition assays, an experiment was performed using a conventional substance as a control. HDAC enzyme activity was measured using a HDAC Fluorimetric Drug Discovery Kit (BML-AK511, 516) from Enzo Life Science. For the HDAC1 enzyme activity test, human recombinant HDAC1 (BML-SE456) was used as an enzyme source, and Fluor de Lys®-“SIRT1 (BNL-KI177) was used as a substrate. A 5-fold dilution of the compound was seeded into a 96-well plate, and then 0.3 μg of the enzyme and 10 μM of the substrate were added to each well of the plate and allowed to react at 30° C. for 60 minutes. Then, Fluor de Lys®-Developer II (BML-KI176) was added thereto and allowed to react for 30 minutes, after which the fluorescence value (Ex 360, Em 460) was measured using a multi-plate reader (Flexstation 3, Molecular Device). The HDAC6 enzyme was tested using human recombinant HDAC6 (382180) from Calbiochem, according to the same protocol as the HDAC1 enzyme activity test method. Based on the resulting values, each IC50 value was calculated using GraphPad Prism4.0 program.

As to `O=C(c1ccncc1)N(Cc1ccc(-c2nnc(C(F)(F)F)o2)cc1)c1ccccc1` [Compound 11022, N-phenyl-N-(4-(5-(trifluoromethyl)-1,3,4-oxadiazol-2-yl)benzyl)isonicotinamide], the “HDAC6 selectivity (fold)” value amounted to 427 fold and the IC50 is 0.234 µM.
`CC(=O)N(Cc1ccc(-c2nnc(C(F)(F)F)o2)cc1)c1ccccc1` [Compound 11105, N-phenyl-N-(4-(5-(trifluoromethyl)-1,3,4-oxadiazol-2-yl)benzyl)acetamide]: the “HDAC6 selectivity (fold)” value was 524 fold and the IC50 is 0.191 µM.
The matching figures for `O=C(C1CCCCC1)N(Cc1ccc(-c2nnc(C(F)(F)F)o2)cc1)c1ccccc1` [Compound 11106, N-phenyl-N-(4-(5-(trifluoromethyl)-1,3,4-oxadiazol-2-yl)benzyl)cyclohexanecarboxamide]: 77 fold and 1.3 µM.
As to `O=C(c1ccccc1)N(Cc1ccc(-c2nnc(C(F)(F)F)o2)cc1)c1ccccc1` [Compound 11107, N-phenyl-N-(4-(5-(trifluoromethyl)-1,3,4-oxadiazol-2-yl)benzyl)benzamide], the “HDAC6 selectivity (fold)” value was determined as 196 fold and the IC50 was 0.509 µM.
The matching figures for `O=C(c1ccncc1)N(Cc1ccc(-c2nnc(C(F)F)o2)cc1)c1ccccc1` [Compound 11108, N-(4-(5-(difluoromethyl)-1,3,4-oxadiazol-2-yl)benzyl)-N-phenylisonicotinamide]: 1695 fold and 0.059 µM.
Turning to `O=C(c1ccncc1)N(Cc1ccc(-c2nnc(C(F)(F)F)o2)cc1F)c1ccccc1` [Compound 11109, N-(2-fluoro-4-(5-(trifluoromethyl)-1,3,4-oxadiazol-2-yl)benzyl)-N-phenylisonicotinamide], the “HDAC6 selectivity (fold)” value turned out to be 1818 fold and the half-maximal inhibitory concentration (IC50) came out at 0.055 µM.
Regarding `O=C(c1ccncc1)N(Cc1ccc(-c2nnc(C(F)F)o2)cc1F)c1ccccc1` [Compound 11110, N-(4-(5-(difluoromethyl)-1,3,4-oxadiazol-2-yl)-2-fluorobenzyl)-N-phenylisonicotinamide], the “HDAC6 selectivity (fold)” value was 2000 fold and the half-maximal inhibitory concentration (IC50) amounted to 0.05 µM.
The matching figures for `CC(C)(C)OC(=O)N1CC(C(=O)N(Cc2ccc(-c3nnc(C(F)(F)F)o3)cc2)c2ccccc2)C1` [Compound 11134, tert-butyl 3-(phenyl(4-(5-(trifluoromethyl)-1,3,4-oxadiazol-2-yl)benzyl)carbamoyl)azetidine-1-carboxylate]: 109 fold and 0.914 µM.
In the same order, the values of `CC(C)(C)OC(=O)N1CCC(C(=O)N(Cc2ccc(-c3nnc(C(F)(F)F)o3)cc2)c2ccccc2)CC1` [Compound 11135, tert-butyl 4-(phenyl(4-(5-(trifluoromethyl)-1,3,4-oxadiazol-2-yl)benzyl)carbamoyl)piperidine-1-carboxylate] are 36 fold and 2.75 µM.
Take `Cl.O=C(C1CNC1)N(Cc1ccc(-c2nnc(C(F)(F)F)o2)cc1)c1ccccc1` [Compound 11136, N-phenyl-N-(4-(5-(trifluoromethyl)-1,3,4-oxadiazol-2-yl)benzyl)azetidine-3-carboxamide hydrochloride]: the “HDAC6 selectivity (fold)” value is on record as 493 fold and the 50% inhibitory concentration (IC50) was determined as 0.203 µM.
As for `Cl.O=C(C1CCNCC1)N(Cc1ccc(-c2nnc(C(F)(F)F)o2)cc1)c1ccccc1` [Compound 11137, N-phenyl-N-(4-(5-(trifluoromethyl)-1,3,4-oxadiazol-2-yl)benzyl)piperidine-4-carboxamide hydrochloride], the “HDAC6 selectivity (fold)” value was found to be 275 fold and the IC50 turned out to be 0.364 µM.
The matching figures for `CN1CC(C(=O)N(Cc2ccc(-c3nnc(C(F)(F)F)o3)cc2)c2ccccc2)C1` [Compound 11138, 1-methyl-N-phenyl-N-(4-(5-(trifluoromethyl)-1,3,4-oxadiazol-2-yl)benzyl)azetidine-3-carboxamide]: 351 fold and 0.285 µM.
The matching figures for `CCN1CC(C(=O)N(Cc2ccc(-c3nnc(C(F)(F)F)o3)cc2)c2ccccc2)C1` [Compound 11139, 1-ethyl-N-phenyl-N-(4-(5-(trifluoromethyl)-1,3,4-oxadiazol-2-yl)benzyl)azetidine-3-carboxamide]: 775 fold and 0.129 µM.
Regarding `CN1CCC(C(=O)N(Cc2ccc(-c3nnc(C(F)(F)F)o3)cc2)c2ccccc2)CC1` [Compound 11140, 1-methyl-N-phenyl-N-(4-(5-(trifluoromethyl)-1,3,4-oxadiazol-2-yl)benzyl)piperidine-4-carboxamide], the “HDAC6 selectivity (fold)” value was determined as 478 fold and the IC50 worked out at 0.209 µM.
In the same order, the values of `CCN1CCC(C(=O)N(Cc2ccc(-c3nnc(C(F)(F)F)o3)cc2)c2ccccc2)CC1` [Compound 11141, 1-ethyl-N-phenyl-N-(4-(5-(trifluoromethyl)-1,3,4-oxadiazol-2-yl)benzyl)piperidine-4-carboxamide] are 306 fold and 0.327 µM.
In the same order, the values of `CC(C)N1CC(C(=O)N(Cc2ccc(-c3nnc(C(F)(F)F)o3)cc2)c2ccccc2)C1` [Compound 11142, 1-isopropyl-N-phenyl-N-(4-(5-(trifluoromethyl)-1,3,4-oxadiazol-2-yl)benzyl)azetidine-3-carboxamide] are 303 fold and 0.33 µM.
Take `CC(C)N1CCC(C(=O)N(Cc2ccc(-c3nnc(C(F)(F)F)o3)cc2)c2ccccc2)CC1` [Compound 11143, 1-isopropyl-N-phenyl-N-(4-(5-(trifluoromethyl)-1,3,4-oxadiazol-2-yl)benzyl)piperidine-4-carboxamide]: the “HDAC6 selectivity (fold)” value is recorded as 452 fold and the IC50 is 0.221 µM.
As to `CCC(=O)N1CC(C(=O)N(Cc2ccc(-c3nnc(C(F)(F)F)o3)cc2)c2ccccc2)C1` [Compound 11157, N-phenyl-1-propionyl-N-(4-(5-(trifluoromethyl)-1,3,4-oxadiazol-2-yl)benzyl)azetidine-3-carboxamide], the “HDAC6 selectivity (fold)” value amounted to 1111 fold and the 50% inhibitory concentration (IC50) was 0.09 µM.
In the same order, the values of `CC(C)C(=O)N1CC(C(=O)N(Cc2ccc(-c3nnc(C(F)(F)F)o3)cc2)c2ccccc2)C1` [Compound 11158, 1-isobutyryl-N-phenyl-N-(4-(5-(trifluoromethyl)-1,3,4-oxadiazol-2-yl)benzyl)azetidine-3-carboxamide] are 1111 fold and 0.09 µM.
Turning to `O=C(C1CN(C(=O)C(F)(F)F)C1)N(Cc1ccc(-c2nnc(C(F)(F)F)o2)cc1)c1ccccc1` [Compound 11159, N-phenyl-1-(2,2,2-trifluoroacetyl)-N-(4-(5-(trifluoromethyl)-1,3,4-oxadiazol-2-yl)benzyl)azetidine-3-carboxamide], the “HDAC6 selectivity (fold)” value is 787 fold and the IC50 worked out at 0.127 µM.
The matching figures for `CS(=O)(=O)N1CC(C(=O)N(Cc2ccc(-c3nnc(C(F)(F)F)o3)cc2)c2ccccc2)C1` [Compound 11160, 1-(methylsulfonyl)-N-phenyl-N-(4-(5-(trifluoromethyl)-1,3,4-oxadiazol-2-yl)benzyl)azetidine-3-carboxamide]: 606 fold and 0.165 µM.

These data come from US10584117B2, “1,3,4-oxadiazole amide derivative compound as histone deacetylase 6 inhibitor, and pharmaceutical composition containing same” (Chong Kun Dang Pharmaceutical Corp., priority 2015, dated 2020).
